Assay results reported in ChEMBL document CHEMBL1146465, “Three new oleanane-type triterpenes from Ludwigia octovalvis with cytotoxic activity against two human cancer cell lines” (J Nat Prod, 2004).

Columns and labels:
HT-29 = experiment: Cytotoxicity against human HT-29 cells after 72 hrs by methylene blue assay; type: functional, cell-based; conditions: HT-29, 72 h
KB = experiment: Cytotoxicity against human KB cells after 72 hrs by methylene blue assay; type: functional, cell-based

SMILES | IC50 (HT-29) | IC50 (KB)
CC1(C)CC[C@]2(C(=O)O)CC[C@]3(C)C(=CC[C@@H]4[C@@]5(C)CC[C@H](OC(=O)/C=C\c6ccc(O)cc6)[C@@](C)(CO)[C@@H]5CC[C@]43C)[C@@H]2C1 | 2.1 µM | 1.2 µM
CC1(C)CC[C@]2(C(=O)O)CC[C@]3(C)C(=CC[C@@H]4[C@@]5(C)CC[C@H](O)[C@@](C)(COC(=O)/C=C\c6ccc(O)cc6)[C@@H]5CC[C@]43C)[C@@H]2C1 | 3.6 µM | 1.6 µM
CC1(C)CC[C@]2(C(=O)O)CC[C@]3(C)C(=CC[C@@H]4[C@@]5(C)CC[C@H](O)[C@@](C)(COC(=O)/C=C/c6ccc(O)cc6)[C@@H]5CC[C@]43C)[C@@H]2C1 | 2.4 µM | 1.3 µM
COc1cc([C@@H]2c3cc4c(cc3[C@@H](O[C@@H]3O[C@@H]5CO[C@@H](C)O[C@H]5[C@H](O)[C@H]3O)[C@H]3COC(=O)[C@H]23)OCO4)cc(OC)c1O [ETOPOSIDE] | 2.3 µM | 1.1 µM
